Reference: patent US8293231B2, “Methods and compositions for treating ischemia” (Blue Blood Biotech Corp., priority 2005, dated 2012)
Entries after “also recorded” stand apart in the source; their conditions may differ.

What was measured:
[1] = target: thrombin-dependent protein C activation (Homo sapiens, UniProt P00734); test: Thrombomodulin activity assay (cofactor activity for thrombin-dependent protein C activation); assay type: biochemical; settings: on an equal molar basis
Procedure: Cofactor activity of TMD2 and TMD23 for thrombin-dependent protein C activation was measured as described previously. Huang H C., et al Thrombomodulin-mediated cell adhesion: Involvement of its lectin-like domain. J Biol. Chem. 2003; 278:46750-46759.
Cofactor activity of TMD2 and TMD23 for thrombin-dependent protein C activation was measured as described previously. Huang H C., et al Thrombomodulin-mediated cell adhesion: Involvement of its lectin-like domain. J Biol. Chem. 2003; 278: 46750-46759.

[2] = system: human umbilical vein endothelial cells (HUVECs); test: Cell proliferation assay (BrdU incorporation); assay type: cell-based
Procedure: (§1) To evaluate the effect of TMD proteins on DNA synthesis in human umbilical vein endothelial cells (HUVECs), we performed a 5-bromo-2′-deoxyuridine (BrdU) incorporation assay with a commercial quantification kit (Roche Diagnostic GmbH) and manufacturer's protocol. Mitogenic effects induced by TMD proteins were also determined in the presence of polyclonal rabbit anti-TMD23 antibody (prepared by GlycoNex, Inc., Taiwan) that was purified by protein G-Sepharose column (Amersham Pharmacia Biotech AB).
as §1, with “(HUVECs),” for “(HUVECs), we performed”, “assay were performed” for “assay”

[3] = system: MMP-1, MMP-2, MMP-3, and MMP-9 in HUVEC conditioned medium; test: Gelatin and casein zymographies; assay type: cell-based, human; settings: gelatin zymography
Procedure: (§2) HUVECs were seeded at 80% confluence on 100-mm dishes in M199 medium. After 24 h, cells were rinsed with serum-free M199 twice and incubated in serum-free M199 with various concentrations of TMD23, VEGF (10 ng/mL), or PMA (70 ng/mL) for 12 h. The conditioned medium containing […] secreted proteins was analyzed by gelatin- and casein-based zymographies. The digested area appeared clear on a blue background, indicating the location of matrix metalloproteinase (MMP) activity. To further verify MMP caseinolytic activity, the casein-containing gel was incubated with incubation buffer containing 10 mM EDTA, an inhibitor of MMPs, to observe disappearance of the clear band. Plasminogen activator inhibitor (PAI) activity was measured by titrating samples with increasing amounts of tissue-type plasminogen activator (t-PA) (Boehringer Ingelheim) into a fixed volume of endothelial-cell-conditioned media.
as §2, with “zymographies. Lee O H, et al., Identification of angiogenic properties of insulin-like growth factor II in in vitro angiogenesis models. Brit J. Cancer. 2000; 82:385-391.” for “zymographies.”, “media. Shi G Y., et al., Plasmin and the regulation of tissue-type plasminogen activator biosynthesis in human endothelial cells. […]” for “media.”

HUVECs = test: In vitro Matrigel angiogenesis assay (tube formation); assay type: cell-based, human
Procedure: (§3) Growth-factor-reduced Matrigel (BD Biosciences) was thawed at 4° C. A total of 200 μL Matrigel was added to wells of a 48-well plate and polymerized 30 min at 37° C. Two hundred μL cell suspension containing various concentrations of VEGF, TMD23, or TMD23 in the presence of polyclonal rabbit anti-TMD23 antibody (10 μg/mL) or various signaling pathway inhibitors were plated onto Matrigel-coated wells at a density of 2.4×10^4 cells/well in M199 containing 10% FBS for 24 h at 37° C. in a 5% CO2 humidified atmosphere. Each concentration was tested in triplicate in the same plate, with wells photographed using a Leica camera (40× magnification). Tube length was quantified by measuring tubes in five randomly chosen fields from each well using MetaMorph software. Experiments were repeated at least three times.
as §3, with “5° k” for “5%”

[4] = system: Matrigel plugs in FVB mice; test: Murine angiogenesis assay (Matrigel plug); assay type: in vivo
Procedure: To assess angiogenic effects in vivo, growth-factor-reduced liquid Matrigel (0.5 mL) containing heparin (60 U/mL) and various concentrations of TMD23, bFGF or VEGF was subcutaneously injected into FVB mice near the abdominal midline. Matrigel with PBS plus heparin served as the negative control, with bFGF and VEGF plus heparin as the positive control. Four days after injection, mice were sacrificed and Matrigel plugs were surgically removed. For macroscopic analysis of angiogenesis, hemoglobin content in Matrigel was measured using Drabkin reagent 525 (Sigma-Aldrich). For histological analysis, rat anti-mouse CD31 (PECAM-1, platelet endothelial cell adhesion molecule-1) antibody (Pharmingen) was used. The same specimens were used for hematoxylin and eosin (H&E) staining.

## TMD23: Recombinant human thrombomodulin fragment, amino acids Ala242-Ser515 of SEQ ID NO: 2: six EGF-like structures (D2) plus Ser/Thr-rich domain D3
[1]
  Cofactor activity higher than that of TMD2: 25%
[2]; 4.5 nM (150 ng/mL)
  Stimulation of HUVEC proliferation: roughly two-fold
[2]; BrdU incorporation, FIG. 2A
  DNA synthesis in HUVECs: stimulated DNA synthesis
[2]; FIG. 2A
  Mitogenic activity / stimulation of HUVEC proliferation compared with TMD2: higher mitogenic activity than TMD2; also recorded: more effective than TMD2
[3]; 12 h
  Expression of MMP-2 and MMP-9: no significant effect
[3]; MMP-3 confirmed by caseinolytic zymography
  Expression of MMP-1/3: stimulated expression
HUVECs; 24 h, VEGF 10 ng/mL, TMD23 5 to 250 ng/mL
  HUVEC tube formation on Matrigel: formed elongated capillary-like structures, with complete networks
HUVECs; FIG. 5G
  Tubule length per well: stimulated tube formation in dose-dependent manner
[4]; Matrigel plug assay
  Induction of in vivo angiogenesis compared with TMD2: more effective than TMD2
[4]; TMD23 and heparin
  Histology of Matrigel plugs (H&E, anti-mouse CD31): Capillary-like structures were found
[4]; all TMD23 concentrations, plus heparin
  Vascularization of Matrigel plugs: Intense vascularization
[4]; day 4, plus heparin (30 U), TMD23 10, 100, or 1,000 ng, bFGF 250 ng, VEGF 50 ng
  Appearance of Matrigel plugs, with heparin: bright red
[4]; gels supplemented with both angiogenic factor and heparin
  Magnitude of angiogenic reaction with heparin versus without: considerably greater
[4]; plus heparin, compared with controls
  Hemoglobin content of recovered Matrigel plugs: significantly increased
